Test results as given in ChEMBL document CHEMBL3232928, “Fragment-to-hit-to-lead discovery of a novel pyridylurea scaffold of ATP competitive dual targeting type II topoisomerase inhibiting antibacterial agents” (J Med Chem, 2013).
Converted amounts (≈) assume the structure as drawn. The source made the active and inactive calls. The calls are words filed in the database; no cut-off is given here.

Key:
DNA gyrase subunit B = DNA gyrase subunit B (Staphylococcus aureus, UniProt P0A0K8); assay: Inhibition of ATPase activity in Staphylococcus aureus GyrB tetramer in presence of Escherichia coli GyrA by ammonium molybdate/malachite green-based absorbance assay
Chain of DNA gyrase subunit B (P0A0K8 whole entry): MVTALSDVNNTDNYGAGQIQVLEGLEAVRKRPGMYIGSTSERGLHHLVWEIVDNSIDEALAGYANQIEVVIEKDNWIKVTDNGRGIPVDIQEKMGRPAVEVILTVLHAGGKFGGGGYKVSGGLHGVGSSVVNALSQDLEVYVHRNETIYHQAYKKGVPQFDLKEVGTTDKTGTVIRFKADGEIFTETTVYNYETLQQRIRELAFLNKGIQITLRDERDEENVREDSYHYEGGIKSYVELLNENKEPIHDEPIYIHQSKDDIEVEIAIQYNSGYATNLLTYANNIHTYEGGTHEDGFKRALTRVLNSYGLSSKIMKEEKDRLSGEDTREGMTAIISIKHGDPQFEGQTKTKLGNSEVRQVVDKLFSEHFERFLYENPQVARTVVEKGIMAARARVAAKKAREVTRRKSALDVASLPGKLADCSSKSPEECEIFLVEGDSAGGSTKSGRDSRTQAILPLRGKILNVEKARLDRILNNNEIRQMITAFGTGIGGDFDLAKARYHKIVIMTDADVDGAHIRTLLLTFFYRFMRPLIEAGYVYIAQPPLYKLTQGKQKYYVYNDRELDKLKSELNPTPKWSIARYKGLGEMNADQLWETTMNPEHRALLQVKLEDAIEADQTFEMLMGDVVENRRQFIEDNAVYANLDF

Staphylococcus aureus [1] = assay: Antibacterial activity against methicillin-resistant and […] Staphylococcus aureus assessed as growth inhibition after 18 to 24 hrs by CLSI broth microdilution method; type: functional
[2] = Unbound fraction in human at 10 uM after 16 hrs by LC-MS/MS analysis; type: ADME; conditions: plasma
[3] = Antibacterial activity against fluoroquinolone-resistant Streptococcus pneumoniae D39 NCTC 7466 expressing ParE/GyrB K143I mutant assessed as growth inhibition after 18 to 24 hrs by CLSI broth microdilution method; type: functional
[4] = Antibacterial activity against fluoroquinolone-resistant Streptococcus pneumoniae D39 NCTC 7466 expressing GyrA S81Y/ParC S79F double mutant assessed as growth inhibition after 18 to 24 hrs by CLSI broth microdilution method; type: functional
Staphylococcus aureus [5] = assay: Resistance factor, ratio of MIC for Staphylococcus aureus drug resistance mutants at 0.05 ug/ml after 7 days to MIC for wild type methicillin-sensitive Staphylococcus aureus at 0.05 ug/ml after 7 days; type: functional
Staphylococcus aureus [6] = assay: Antibacterial activity against ip dosed Staphylococcus aureus infected in neutropenic mouse thigh model assessed as decrease in bacterial viable counts administered up to 12 hrs; type: functional; conditions: Thigh muscle
[7] = Antibacterial activity against fluoroquinolone-resistant Streptococcus pneumoniae D39 NCTC 7466 expressing GyrA S81F/ParC S79F double mutant assessed as growth inhibition after 18 to 24 hrs by CLSI broth microdilution method; type: functional
[8] = Clearance in mouse; type: ADME, organism-based; conditions: in vivo
[9] = Volume of distribution at steady state in rat plasma at 10 mg/kg, iv administered 15 mins of infusion measured for 0 to 24 hrs by LC-MS/MS analysis; type: ADME, organism-based; design: dose 10 mg/kg, route intravenous; conditions: read-out: Vdss
Staphylococcus aureus [10] = assay: Resistance factor, ratio of MIC for Staphylococcus aureus drug resistance mutants at 0.05 ug/ml after 7 days to MIC for wild type methicillin-sensitive Staphylococcus aureus at 0.1 ug/ml after 7 days; type: functional
[11] = Octanol-phosphate buffer partition coefficient, log D of the compound at pH 7.4 after 1 hr by shake flask method; type: physicochemical
Staphylococcus aureus [12] = assay: Resistance factor, ratio of MIC for Staphylococcus aureus drug resistance mutants at 0.05 ug/ml after 7 days to MIC for wild type methicillin-sensitive Staphylococcus aureus at 0.2 ug/ml after 7 days; type: functional
Staphylococcus aureus [13] = assay: Antibacterial activity against methicillin-sensitive wild type Staphylococcus aureus assessed as growth inhibition after 18 to 24 hrs by CLSI broth microdilution method; type: functional
[14] = Antibacterial activity against Streptococcus pneumoniae D39 NCTC 7466 assessed as growth inhibition after 18 to 24 hrs by CLSI broth microdilution method; type: functional
[15] = Clearance in rat plasma at 10 mg/kg, iv administered 15 mins of infusion measured for 0 to 24 hrs by LC-MS/MS analysis; type: ADME, organism-based; design: dose 10 mg/kg, route intravenous
[16] = Antibacterial activity against fluoroquinolone-resistant Streptococcus pneumoniae D39 NCTC 7466 expressing GyrB K143A/ParE T172A double mutant assessed as growth inhibition after 18 to 24 hrs by CLSI broth microdilution method; type: functional
[17] = Antibacterial activity against fluoroquinolone-resistant Streptococcus pneumoniae D39 NCTC 7466 expressing GyrB T172A/ParE T172A double mutant assessed as growth inhibition after 18 to 24 hrs by CLSI broth microdilution method; type: functional
Moraxella catarrhalis = assay: Antibacterial activity against wild type Moraxella catarrhalis ATCC 43617 assessed as growth inhibition after 18 to 24 hrs by CLSI broth microdilution method; type: functional
Escherichia coli [18] = assay: Antibacterial activity against tolC efflux pump deficient Escherichia coli W3110 assessed as growth inhibition after 18 to 24 hrs by CLSI broth microdilution method; type: functional
Staphylococcus aureus [19] = assay: Antibacterial activity against Staphylococcus aureus infected in neutropenic mouse thigh model assessed as decrease in bacterial viable counts at 300 mg/kg, ip administered up to 12 hrs; type: functional, organism-based; design: dose 300 mg/kg
Staphylococcus aureus [20] = assay: Antibacterial activity against Staphylococcus aureus infected in neutropenic mouse thigh model assessed as decrease in bacterial viable counts at 300 mg/kg, ip administered up to 12 hrs relative to vehicle-treated control; type: functional; conditions: route intraperitoneal
[21] = Volume of distribution at steady state in mouse; type: ADME, organism-based; conditions: in vivo, read-out: Vdss
[22] = Inhibition of ATPase activity in Escherichia coli ParE by ammonium molybdate/malachite green-based absorbance assay
[23] = Solubility of the compound; type: physicochemical
[24] = Inhibition of ATPase activity in Escherichia coli ParC/ParE by ammonium molybdate/malachite green-based absorbance assay
[25] = Antibacterial activity against fluoroquinolone-resistant Streptococcus pneumoniae D39 NCTC 7466 expressing GyrB/ParE T172A mutant assessed as growth inhibition after 18 to 24 hrs by CLSI broth microdilution method; type: functional
Escherichia coli [26] = assay: Antibacterial activity against wild type Escherichia coli W3110 assessed as growth inhibition after 18 to 24 hrs by CLSI broth microdilution method; type: functional
[27] = Antibacterial activity against fluoroquinolone-resistant Streptococcus pneumoniae D39 NCTC 7466 expressing GyrA S81F/ParC S79Y double mutant assessed as growth inhibition after 18 to 24 hrs by CLSI broth microdilution method; type: functional
[28] = Dissociation constant, pKa of the compound; type: physicochemical
[29] = Inhibition of ATPase activity in Escherichia coli GyrA/GyrB by ammonium molybdate/malachite green-based absorbance assay
[30] = Antibacterial activity against wild type Haemophilus influenzae Rd KW20 ATCC 51907 assessed as growth inhibition after 18 to 24 hrs by CLSI broth microdilution method; type: functional
Streptococcus pneumoniae = assay: microbe, parasite or virus in culture
Description: Antibacterial activity against wild type Streptococcus pneumoniae assessed as growth inhibition after 18 to 24 hrs by CLSI broth microdilution method

Staphylococcus aureus [31] = assay: Antibacterial activity against ip dosed Staphylococcus aureus infected in neutropenic mouse thigh model assessed as decrease in bacterial viable counts administered up to 12 hrs relative to vehicle-treated control; type: functional, organism-based; conditions: Thigh muscle
[32] = Antibacterial activity against fluoroquinolone-resistant Streptococcus pneumoniae D39 NCTC 7466 expressing ParE/GyrB T172A mutant assessed as growth inhibition after 18 to 24 hrs by CLSI broth microdilution method; type: functional

## CCNC(=O)Nc1cc(-c2nc(C(F)(F)F)cs2)c(-c2cncc(-c3n[nH]c(=O)o3)c2)cn1
DNA gyrase subunit B
  IC50: < 10 nM
Staphylococcus aureus [1]
  MIC: 0.06 µg/mL (≈ 0.126 µM)
[2]
  fraction unbound at 16 h, 10 µM: 0.044
[3]
  MIC: 0.01 µg/mL (≈ 0.0209 µM)
[4]
  MIC: 0.0025 µg/mL (≈ 0.00524 µM)
Staphylococcus aureus [5]
  Ratio: 16
Staphylococcus aureus [6]
  ED50: 200 mg/kg
[7]
  MIC: 0.0025 µg/mL (≈ 0.00524 µM)
[8]
  clearance: 74 mL/min/kg
[9]
  Vd: 0.66 L/kg
Staphylococcus aureus [10]
  Ratio: 16
[11]
  logD at 1 h: 2
Staphylococcus aureus [12]
  Ratio: 16
Staphylococcus aureus [13]
  MIC: 0.04 µg/mL (≈ 0.0838 µM)
[14]
  MIC: 0.05 µg/mL (≈ 0.105 µM)
[15]
  clearance: 36 mL/min/kg
[16]
  MIC: 0.04 µg/mL (≈ 0.0838 µM)
[17]
  MIC: 0.02 µg/mL (≈ 0.0419 µM)
Moraxella catarrhalis
  MIC: 0.04 µg/mL (≈ 0.0838 µM)
Escherichia coli [18]
  MIC: 0.15 µg/mL (≈ 0.314 µM)
Staphylococcus aureus [19]
  Activity: Active
Staphylococcus aureus [20]
  fold change (FC): 3000
[21]
  Vd: 2.6 L/kg
[22]
  IC50: < 10 nM
[23]
  solubility: 19 µM (≈ 9.07 µg/mL)
[24]
  IC50: 230 nM
[25]
  MIC: 0.01 µg/mL (≈ 0.0209 µM)
Escherichia coli [26]
  MIC: > 64 µg/mL
[27]
  MIC: 0.0025 µg/mL (≈ 0.00524 µM)
[28]
  pKa: 6.6
[29]
  IC50: < 10 nM
[30]
  MIC: 0.69 µg/mL (≈ 1.45 µM)
Streptococcus pneumoniae
  MIC: 0.0025 µg/mL (≈ 0.00524 µM)
Staphylococcus aureus [31]
  Activity: Dose-dependent effect
[32]
  MIC: 0.01 µg/mL (≈ 0.0209 µM)
